Ends that are not written are not given here.
How the values were obtained:
[1] = test system: mice infected with H3N2 influenza (A/x31) and challenged with poly I:C; experiment: Model of ARDS associated to influenza A virus (IAV) infection with Poly I:C challenge, BAL cells, cytokines, lung viral titre; type: in vivo; details: for Lymphocyte infiltration / Macrophage infiltration / Neutrophil infiltration: SEQ ID NO:1 80-800 μg/Kg iv q.d., Dex 10 mg/kg ip q.d.; for BAL Lymphocytes / BAL Macrophages / BAL Neutrophils: IAV/Poly I:C, 48 hrs after Poly I:C
Description: Mice were infected intranasally with a H3N2 strain of influenza (A/x31; 1×10^3 pfu). Three days after infection (time of peak viral load in the lung), animals received a dose of the viral mimetic polyinosinic-polycytidylic acid (poly I:C) or vehicle (PBS). Initially, dose response and time course studies with Poly I:C were done to establish conditions to show exacerbated lung inflammation after viral challenge (30 μg/animal and 48 hrs after Poly I:C challenge, respectively). SEQ ID NO:1 (80-800 μg/Kg) or vehicle were administered q.d. intravenously, 15 min before Poly I:C and 24 hrs later. Positive control Dexamethasone (Dex) was administered q.d. intraperitoneally (10 mg/kg) 1 hr before poly I:C challenge and 24 hrs later. 48 hrs after Poly I:C challenge, bronchoalveolar lavage (BAL) fluid was collected for differential cell counts and to measure cytokines using a multiplex immunoassay. Lung tissue was also collected to determine the viral titre.

[2] = test system: dendritic cells from CD14+ monocytes of healthy donors; type: cell-based, human; details: 400 ng/mL + LPS/IFNγ
[3] = test system: HDM-induced pulmonary inflammation in Balb/C mice; experiment: House dust mite (HDM)-induced pulmonary inflammation, 3 week i.n. HDM sensitisation model, BAL cell influx and cytokines; type: in vivo
Description: The objective of the study was to investigate the inhibitory effects of 3 different concentrations of the peptides in a saline solution on house dust mite (HDM)-induced pulmonary inflammation in Balb/C mice using a 3 week intranasal (i.n.) HDM sensitisation model. Results are shown for SEQ ID NO: 1. This study also looked at time point effects of SEQ ID NO: 1; in addition to 7 day post HDM challenge, a further time point, 4 h post a second HDM challenge (14 days after the first HDM challenge), was investigated to assess the effects of SEQ ID NO: 1 on remission of the allergic response.
A 3 week sensitisation and challenge model was applied where n=90 female Balb/C mice of approximately 6-8 weeks of age, approximately 20-25 g at start of study were used.
Following 11 days' acclimatisation all mice received 25 μg (total protein) HDM delivered i.n. 5 days/week for 3 weeks. HDM sensitisation was carried out each day of dosing and all intranasal dosing was performed where the mice were lightly anaesthetised using isoflurane.
Two weeks after the final HDM sensitisation dose all mice received a single 50 μL i.n. dose of a saline solution of the peptide or saline (0.9% w/v Sodium Chloride) vehicle solution. For SEQ ID NO: 1, dose solutions were 0.02 μg/kg, 0.2 μg/kg and 2 μg/kg. 15 minutes post peptide or saline vehicle dose all mice received a single 50 uL challenge administered i.n. of saline (0.9% w/v Sodium Chloride) or 100 μg HDM.
Some groups of animals received a second 50 μL i.n. administered dose of either saline or HDM 100 μg dose four weeks post sensitisation. Animals were then euthanised 4 hrs post second challenge (corresponding to 14 days post dosing).
The lungs were lavaged via the trachea with 1 mL of BAL (bronchoalveolar lavage) fluid. Samples were placed on wet ice (4° C.) and a differential cell count using a Sysmex XT2000i vet cell analyser was performed before the BAL sample was centrifuged at 1300 rcf for 7 min. A 200 μL BAL supernatant sample was put in a polypropylene U bottom 96 well plate and frozen at −20° C. for subsequent cytokine analysis using a standard MSD protocol.
Data analysis was performed using Graphpad PRISM 6. The statistical tests applied to determine statistical significance were analysis of variance (ANOVA) followed by a post-hoc test or an unpaired T-test.

[4] = test system: THP-1 differentiated macrophages; experiment: IL-10 release from LPS stimulated macrophages (alphaLISA); type: cell-based, human; details: 1 nM; top LPS doses 1-10 μg/mL; 6 hours after LPS stimulation
Description: THP-1 monocytic human cells were differentiated into macrophages with 50 nM phorbol myristate acetate for 48 hrs on a 96 well plate (100K cells/well).
Macrophages were stimulated with increasing concentrations of bacterial lipopolysaccharide (LPS 10^−6-10 μg/mL) in the presence or absence of SEQ ID NO:1 (1 nM). 30 μL of cell media was sampled at 6 hours after LPS stimulation and an IL-10 alphaLISA was run to measure the release of IL-10.

[5] = test system: animal model of allergic airway inflammation; details: disclosed in WO2009/106819; cited from earlier work
[6] = test system: ovalbumin sensitised BALB/c mice; details: mouse, in vivo
[7] = 48 hrs after Poly I:C challenge
[8] = 2 μg/kg i.n. single dose, 7 day time point, compared to saline/HDM
[9] = 2 μg/kg i.n. single dose, 14 day time point, 4 hrs post second HDM challenge, compared to saline/HDM
[10] = 2 μg/kg i.n., 14 days time point, compared to saline/HDM
[11] = 48 hrs after Poly I:C challenge, multiplex immunoassay

In the case of `C[C@@H]1C[C@H]2[C@@H]3CCC4=CC(=O)C=C[C@]4(C)[C@@]3(F)[C@@H](O)C[C@]2(C)[C@@]1(O)C(=O)CO` [Dex, Dexamethasone, reference compound], the Lymphocyte infiltration [1, 7] is reported as “no effect”, the Macrophage infiltration [1, 7] is reported as “no effect” and the Neutrophil infiltration [1, 7] is reported as “no effect”. The “BAL Lymphocytes” value ([1]; 10 mg/kg ip) was 9.4 ± 0.7 ×10^4/mL, the “BAL Macrophages” value ([1]; 10 mg/kg ip) was 40.90 ± 0.2 ×10^4/mL and the “BAL Neutrophils” value ([1]; 10 mg/kg ip) was 35.7 ± 2.6 ×10^4/mL.
With “DGSVVVNKVSELPAGHGLNVNTLSYGDLAAD-OH [SEQ ID NO:1]” the “IL-10 gene expression (LPS/IFNγ suppression)” value [2] was “significantly attenuate the LPS/IFNγ suppression of the IL-10 gene”, the “BAL level of eosinophils” value [3, 8] was “decreased level of neutrophils and eosinophils compared to saline/HDM although not statistically significant” and the “BAL level of neutrophils” value [3, 8] was “decreased level of neutrophils and eosinophils compared to saline/HDM although not statistically significant”. For the same compound, the “BAL level of eosinophils” value [3, 9] was “significantly decreased level”, the “BAL level of lymphocytes” value [3, 9] was “significantly decreased level” and the “BAL level of neutrophils” value [3, 9] was “significantly decreased level”. For the same compound, the “BAL level of IL-4” value [3, 10] was “significant inhibition”, the “BAL level of IL-5” value [3, 10] was “significant inhibition” and the “BAL level of IL-13” value [3, 10] was “significant inhibition”. The “BAL release of anti inflammatory cytokine IL-10” value ([3]; 0.02, 0.2, 2 μg/kg i.n., 7 days time point, compared to saline/HDM) was “significant dose response release”, the BAL infiltrated macrophages ([3]; SEQ ID NO:1 treated groups (0.02-2 μg/kg i.n.), 7 day time point) was “trend to an increase of infiltrated macrophages” and the “Release of IL-10” value [4] was “potentiated the release of IL-10”. For the same compound, the Recruitment of eosinophils [5] was “significantly reduce the recruitment of eosinophils”, the Lung viral titre [1, 7] was “no significant effect” and the Lymphocyte infiltration [1, 7] was “significantly and dose dependently reduced”. The Macrophage infiltration [1, 7] was “significantly and dose dependently reduced”, the Neutrophil infiltration [1, 7] was “significantly and dose dependently reduced” and the “BAL G-CSF” value [1, 11] was “significant suppression”. The “BAL GM-CSF” value [1, 11] was “significant suppression”, the “BAL IFN-γ” value [1, 11] was “significant suppression” and the “BAL IL-1γ” value [1, 11] was “significant suppression”. For the same compound, the “BAL IL-6” value [1, 11] was “significant suppression”, the “BAL IL-10” value [1, 11] was “significant suppression” and the “BAL IL-17” value [1, 11] was “significant suppression”. For the same compound, the “BAL KC/IL-8” value [1, 11] was “significant suppression”, the “BAL MCP-1” value [1, 11] was “significant suppression” and the “BAL MIP-1α” value [1, 11] was “significant suppression”. For the same compound, the “BAL MIP-3α” value [1, 11] was “significant suppression”, the “BAL TNF-α” value [1, 11] was “significant suppression” and the “BAL Lymphocytes” value ([1]; 80μ/kg iv) was 7.4 ± 0.5 ×10^4/mL. For the same compound, the “BAL Macrophages” value ([1]; 80μ/kg iv) was 40.3 ± 1.6 ×10^4/mL, the “BAL Neutrophils” value ([1]; 80μ/kg iv) was 30 ± 2.2 ×10^4/mL and the “BAL Lymphocytes” value ([1]; 800μ/kg iv) was 4.7 ± 0.5 ×10^4/mL. For the same compound, the “BAL Macrophages” value ([1]; 800μ/kg iv) was 24.1 ± 1.6 ×10^4/mL, the “BAL Neutrophils” value ([1]; 800μ/kg iv) was 15.3 ± 2.4 ×10^4/mL and the “Circulating levels of peptide” value [6] was “no longer detectable”. For the same compound, the “Intensity of the inflammatory response (BAL total cells, eosinophils)” value [6] was “significantly reduced” and the “Recruitment of eosinophils after OVA re-challenge” value [6] was “efficient in inhibiting the recruitment of eosinophils”.
For DGSVVVNKVSEL-NH2 [SEQ ID NO:3], the BAL eosinophil number [6] was “significantly reduced” and the “BAL total number of cells” value [6] was “significantly reduced”.
